Test results as given in PubChem BioAssay (NCI).
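Exposure lasted 48 hours, with cells grown in 96-well plates and compounds tested at five concentrations. Here, GI50 denotes the concentration required for 50% inhibition of growth. TGI is the concentration that stops growth completely.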

How the values were obtained:
Assay in all cases: DTP human tumour cell line panel, 48 h
[1] = tested on: SW-620 colon
[2] = tested on: MDA-MB-231 breast
[3] = tested on: BT-549 breast
[4] = tested on: PC-3 prostate
[5] = tested on: HOP-92 NSCLC
[6] = tested on: NCI-H226 lung
[7] = tested on: SNB-19 CNS
[8] = tested on: KM12 colon
[9] = tested on: NCI-H460 lung
[10] = tested on: UO-31 renal
[11] = tested on: HS 578T breast
[12] = tested on: IGROV1 ovarian
[13] = tested on: T-47D breast
[14] = tested on: RPMI-8226 leukemia
[15] = tested on: ACHN renal
[16] = tested on: NCI-H522 lung
[17] = tested on: K-562 leukemia
[18] = tested on: HOP-62 NSCLC
[19] = tested on: HCC-2998 colon
[20] = tested on: SK-MEL-2 melanoma
[21] = tested on: A549 NSCLC
[22] = tested on: DU-145 prostate
[23] = tested on: OVCAR-5 ovarian
[24] = tested on: COLO 205 colon
[25] = tested on: TK-10 renal
[26] = tested on: HL-60(TB) leukemia
[27] = tested on: UACC-257 melanoma
[28] = tested on: M14 melanoma
[29] = tested on: SR leukemia
[30] = tested on: MALME-3M melanoma
[31] = tested on: OVCAR-8 ovarian
[32] = tested on: EKVX NSCLC
[33] = tested on: CAKI-1 renal
[34] = tested on: NCI/ADR-RES ovarian
[35] = tested on: SN12C renal
[36] = tested on: MDA-MB-435
[37] = tested on: HT29 colon
[38] = tested on: RXF 393 renal
[39] = tested on: OVCAR-4 ovarian
[40] = tested on: SF-295 CNS
[41] = tested on: OVCAR-3 ovarian
[42] = tested on: SNB-75 CNS
[43] = tested on: U251 CNS
[44] = tested on: A498 renal
[45] = tested on: SF-539 CNS
[46] = tested on: HCT-15 colon
[47] = tested on: 786-0 renal
[48] = tested on: MOLT-4 leukemia
[49] = tested on: HCT-116 colon
[50] = tested on: SK-OV-3 ovarian
[51] = tested on: LOX IMVI melanoma
[52] = tested on: SK-MEL-5 melanoma
[53] = tested on: UACC-62 melanoma
[54] = tested on: MCF7 breast
[55] = tested on: SK-MEL-28 melanoma
[56] = tested on: SF-268 CNS
[57] = tested on: NCI-H23 lung

`COc1cc2nnn3c4ncccc4c(N=O)c3c2cc1OC` was tested, and the GI50 [1] was 0.312 µM, the TGI [1] was > 100 µM and the GI50 [2] was 4.09 µM. For the same compound, the TGI [2] was > 53.9 µM, the GI50 [3] was 9.43 µM and the TGI [3] was 64.6 µM. The GI50 [4] was 5.62 µM, the TGI [4] was > 100 µM and the GI50 [5] was 0.0657 µM. The GI50 [6] was 6.91 µM, the TGI [6] was 44.4 µM and the GI50 [7] was 9.75 µM. For the same compound, the TGI [7] was > 74 µM, the GI50 [8] was 2.46 µM and the TGI [8] was > 100 µM. The GI50 [9] was 3.64 µM, the TGI [9] was 22.8 µM and the GI50 [10] was 0.89 µM. The TGI [10] was > 20.8 µM, the GI50 [11] was 4.82 µM and the TGI [11] was > 100 µM. For the same compound, the GI50 [12] was 0.896 µM, the TGI [12] was > 37 µM and the GI50 [13] was 0.317 µM. The TGI [13] was > 29.9 µM, the GI50 [14] was 0.173 µM and the TGI [14] was > 100 µM. For the same compound, the GI50 [15] was 0.258 µM, the TGI [15] was 2.15 µM and the GI50 [16] was 3.04 µM. For the same compound, the TGI [16] was 28 µM, the GI50 [17] was 0.282 µM and the TGI [17] was > 100 µM. It also gave a GI50 [18] of 6.71 µM, a TGI [18] of 16.8 µM and a GI50 [19] of 2.28 µM. The TGI [19] was 10.8 µM, the GI50 [20] was 16.5 µM and the TGI [20] was > 68.1 µM. For the same compound, the GI50 [21] was 18.2 µM, the TGI [21] was > 69.2 µM and the GI50 [22] was 3.02 µM. For the same compound, the TGI [22] was 12.5 µM, the GI50 [23] was 5.83 µM and the TGI [23] was > 64.6 µM. The GI50 [24] was 8.21 µM, the TGI [24] was 31.2 µM and the GI50 [25] was 7.98 µM. The TGI [25] was > 88.6 µM, the GI50 [26] was 0.0506 µM and the TGI [26] was > 100 µM. For the same compound, the GI50 [27] was 8.56 µM, the TGI [27] was > 100 µM and the GI50 [28] was 4.58 µM. The TGI [28] was 13 µM, the GI50 [29] was 0.0319 µM and the GI50 [30] was 3.04 µM. The TGI [30] was 17.2 µM, the GI50 [31] was 1.77 µM and the TGI [31] was > 100 µM. The GI50 [32] was 3.97 µM, the TGI [32] was > 66.6 µM and the GI50 [33] was 0.131 µM. The TGI [33] was 1.27 µM, the GI50 [34] was 0.91 µM and the TGI [34] was > 33.6 µM. For the same compound, the GI50 [35] was 2.54 µM, the TGI [35] was > 100 µM and the GI50 [36] was 3.55 µM. For the same compound, the TGI [36] was 32.7 µM, the GI50 [37] was 1.34 µM and the TGI [37] was > 100 µM. The GI50 [38] was 0.989 µM, the GI50 [39] was 3.23 µM and the TGI [39] was > 100 µM. For the same compound, the GI50 [40] was 4.99 µM, the TGI [40] was 29.4 µM and the GI50 [41] was 0.722 µM. For the same compound, the TGI [41] was > 100 µM, the GI50 [42] was 2.59 µM and the TGI [42] was 40.1 µM. The GI50 [43] was 0.777 µM, the TGI [43] was > 39.9 µM and the GI50 [44] was 15.1 µM. The TGI [44] was 35.3 µM, the GI50 [45] was 2.75 µM and the TGI [45] was 9.15 µM. For the same compound, the GI50 [46] was 2.2 µM, the TGI [46] was 21.1 µM and the GI50 [47] was 0.391 µM. For the same compound, the TGI [47] was 2.48 µM, the TGI [48] was > 100 µM and the GI50 [49] was 0.118 µM. The TGI [49] was > 100 µM, the GI50 [50] was 6.96 µM and the TGI [50] was 41.7 µM. The GI50 [51] was 1.16 µM, the TGI [51] was > 100 µM and the GI50 [52] was 14.6 µM. It also gave a TGI [52] of 34 µM, a GI50 [53] of 4.87 µM and a TGI [53] of 24.5 µM. The GI50 [54] was 0.327 µM, the TGI [54] was > 74.5 µM and the GI50 [55] was 9.1 µM. The TGI [55] was > 100 µM, the GI50 [56] was 0.564 µM and the TGI [56] was 19.3 µM. The GI50 [57] was 6.4 µM and the TGI [57] was 27.9 µM.
